Data reported in patent US4652642A, “Azidobenzazepines” (SmithKline Beckman Corporation, priority 1984, dated 1987).

Experiments:
α2 sites [1] = test: protection against photolytic deactivation by concomitant adrenoceptor agents; format: binding; details: concomitant with the 9-azido-3-methyl-6-chloro compound, ultraviolet light
[2] = target: T1, prejunctional alpha2 (α2-adrenoceptor) (Cavia porcellus, UniProt Q60474); test: prejunctional alpha2-antagonist activity, isolated superfused guinea pig left atrium (clonidine concentration-response shift); format: cell-based; details: clonidine as agonist, superfused with antagonist for thirty minutes, read-out: receptor dissociation constant of the antagonist (KB)
T1 construct: The left atrium is removed, dissected free of extraneous tissue and mounted in a 2 ml superfusion chamber; from tissue; host or cells: guinea pig (male) left atrium, sympathetic nerve endings
T1 sequence (Q60474 1-464): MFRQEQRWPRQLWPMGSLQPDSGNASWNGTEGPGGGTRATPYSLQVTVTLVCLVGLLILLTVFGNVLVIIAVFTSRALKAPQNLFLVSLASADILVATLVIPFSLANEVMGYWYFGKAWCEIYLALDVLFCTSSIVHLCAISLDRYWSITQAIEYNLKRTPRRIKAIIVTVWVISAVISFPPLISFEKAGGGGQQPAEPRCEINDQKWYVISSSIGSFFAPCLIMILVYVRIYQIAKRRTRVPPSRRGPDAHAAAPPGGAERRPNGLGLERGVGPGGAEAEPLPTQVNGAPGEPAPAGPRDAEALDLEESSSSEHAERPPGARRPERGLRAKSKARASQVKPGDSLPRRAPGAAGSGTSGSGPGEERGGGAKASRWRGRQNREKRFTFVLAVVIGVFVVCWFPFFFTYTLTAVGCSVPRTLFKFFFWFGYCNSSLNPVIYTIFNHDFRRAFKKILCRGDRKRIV
Experimental: Briefly, the heart is removed from a pentobarbital-anesthetized male guinea pig. The left atrium is removed, dissected free of extraneous tissue and mounted in a 2 ml superfusion chamber. The tissue is paced at 60 pulse/minute and the sympathetic nerves excited at 6 minute intervals by field stimulation. The response to nerve stimulation is measured as the difference in contractile force between the basal contraction and peak contraction following a nerve stimulation. A concentration-response curve for clonidine (a known alpha2 -agonist) is prepared by administering increasing concentrations of clonidine following each successive stimulation. The tissue is, then, superfused with the alpha2 -antagonist to be tested for thirty minutes and the clonidine concentration-effect curve is repeated in the presence of antagonist. The receptor dissociation constant of the antagonist (KB) is defined as the antagonist concentration required to shift the log concentration-response curve of the agonist to the right by a factor of 2.
Pharmacol. 309 217-224 (1979). The preferred species of this invention, i.e. the 9-azido-3-methyl-6-chloro compound, has a KB value of 158 nM in the atrium test.

α2 sites [3] = test: competitive binding to α2 sites
α2 sites [4] = test: photolytic inactivation of α2 binding on ultraviolet irradiation

## COc1cc2nc(N3CCN(C(=O)c4ccco4)CC3)nc(N)c2cc1OC [Prazosin]
α2 sites [1]
  effect of concomitant presence on photolytic deactivation: no effect

## Cc1ccc(N(CC2=NCCN2)c2cccc(O)c2)cc1 [phentolamine]
α2 sites [1]
  effect of concomitant presence on photolytic deactivation: partially blocks the photolytic deactivation

## CN1CCc2c(Cl)ccc(N=[N+]=[N-])c2CC1 [9-azido-3-methyl-6-chloro compound, 9-azido-6-chloro-3-methyl-2,3,4,5-tetrahydro-1H-3-benzazepine]
[2]
  Kb: 158 nM
α2 sites [3]; without irradiation
  mode of binding to α2 sites: bind competitively
α2 sites [3]; α2 sites
  Ki: 42 nM
α2 sites [4]
  binding effect when irradiated with ultraviolet light: the binding effect is made irreversible
α2 sites [4]; irradiated with ultraviolet light
  dependence of photolytic inactivation: concentration and time dependent

## Nc1cc(Cl)c(NC2=NCCN2)c(Cl)c1 [p-aminoclonidine]
α2 sites [1]
  effect of concomitant presence on photolytic deactivation: complete protection
